Square brackets hold non-standard residues; d marks the D form. Peptide text beside a SMILES is read from it. * marks the point of attachment. Dolaproine = CO[C@@H]([C@@H]1CCCN1)[C@@H](C)C(=O)O; Dil = CC[C@H](C)[C@H](NC)[C@@H](CC(=O)O)OC; X1 = C[C@@H](N*)[C@@H](O)c1ccccc1; NMeV = CN[C@H](C(=O)O)C(C)C
Key:
[1] = test system: HER2-positive BT-474 cells; test: Cell viability assay (CellTiter Glo luminescence), inhibition of cell growth; assay type: cell-based; details: 96 h incubation
Description: (§1) The in vitro efficacy of the mAb-reagent 1 conjugates were determined by measuring the inhibitory effect on cell growth of HER-2 receptor over-expressing cancer cell lines.
(§2) Loss of tumour cell viability following treatment with cytotoxic drugs or ADCs in vitro can be measured by growing cell lines in the presence of increasing concentrations of drugs or ADCs and quantifying the loss of proliferation or metabolic activity using CellTiter Glo® Luminescence reagent (Promega Corp. Technical Bulletin TB288; Lewis Phillips G. D, Cancer Res 2008; 68:9280-9290). The protocol describes cell seeding, drug treatment and determination of the cell viability in reference to untreated cells based on ATP synthesis, which is directly related to the number of cells present in the well.
(§3) HER2-positive SK-BR-3 and BT-474 cells were trypsinised with 3 mL Trypsin EDTA for 5-15 min. Trypsinisation was stopped by adding 10 mL complete medium, and cells were transferred to a 50 mL Falcon tube. Cells were counted using a Neubauer haemocytometer and adjusted to a cell density of 1×10^5/mL for BT-474 and 5×10^4/mL for SK-BR-3 respectively. Cells were seeded (100 μL/well) into poly-D-lysine coated opaque-walled 96-well plates and incubated for 24 h at 37° C. and 5% CO2. Tumour cell lines SK-BR-3 (ATCC-HTB-30) and BT-474 (ATCC-HTB-20) were purchased from the American Type Culture Collection. SK-BR-3 cells were grown in McCoy's 5A medium (Life Technologies®), 10% fetal bovine serum, 100 u/mL Penicillin and 100 μg/mL Streptomycin. BT-474 cells were grown in DMEM/F-12 medium (Life Technologies®), 10% fetal bovine serum, 100 u/mL Penicillin and 100 μg/mL Streptomycin. […]
(§4) The cell viability assay was carried out using the Cell-Titer Glo® Luminescence reagent, as described by the manufacturer's instructions, (Promega Corp. Technical Bulletin TB288; Lewis Phillips G. D, Cancer Res 2008; 68:9280-9290). […] Luminescence was recorded using a plate reader (e.g. MD Spectramax M3 plate reader), and data subsequently analysed using a four parameter non-linear regression model.
(§5) The results are shown in FIG. 6, which illustrates cell viability responses to treatment with either antibody-reagent 1 conjugate within SKBR-3 or BT-474 cells. Viability is expressed as % of untreated cells. […]
(§6) The in vitro efficacy of the reagent 6 and reagent 9 antibody conjugates prepared in Example 12 were determined by measuring the inhibitory effect on cell growth of HER-2 receptor over-expressing cancer cell lines by the method of Example 9.
(§7) The results are shown in FIG. 7, which illustrates cell viability responses to treatment with either reagent 6 conjugate or reagent 9 conjugate within SKBR-3 or BT-474 cells. Viability is expressed as % of untreated cells. […]

[2] = test system: HER2-positive SK-BR-3 cells; test: as above; assay type: cell-based; details: 96 h incubation
Description: as §1, §2, §3, §4, §5, §6, §7

## CC[C@H](C)[C@@H]([C@@H](CC(=O)N1CCC[C@H]1[C@H](OC)[C@@H](C)C(=O)N[C@H](C)[C@@H](O)c1ccccc1)OC)N(C)C(=O)[C@@H](NC(=O)[C@@H](NC)C(C)C)C(C)C [MMAE, monomethyl auristatin E] (H-[NMeV]V[Dil][Dolaproine]-X1)
[1]; Example 9, Table 5
  IC50: 0.75 nM
[1]; Example 13, Table 7
  IC50: 0.85 nM
[2]; Example 9, Table 5
  IC50: 0.2 nM
[2]; Example 13, Table 7
  IC50: 0.27 nM
